Values joined by “and” are separate entries in the source; they are usually repeats but may differ in a detail not shown here. Identical values can stand only once. Toxic doses and inconclusive results are not listed. How the source made its calls: active means survival T/C of 150% or more; inactive means T/C below 125% in these data. Non-standard residues stand in square brackets, D forms with d. Residues, ends and D or L forms follow the SMILES beside them. ξ: configuration not given here. *: point of attachment. ξF = NC(Cc1ccccc1)C(=O)O; Cbz = O=C(OCc1ccccc1)*
Test system: CD2F1 mice, L1210 leukemia ip, survival T/C
Assay: NCI In Vivo Anticancer Drug Screen. Data for tumor model L1210 Leukemia (intraperitoneal) in CD2F1 (CDF1) mice
Conditions: higher = longer survival
Procedure, shortened: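 Activity against a transplanted murine tumor was judged by comparing the compound group with a vehicle group. The outcome in the treated animals was divided by that in the controls.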

[1] = endpoint: mean survival time, dose: 100.0 mg/kg/injection, schedule: Q04DX003 (ip), vehicle: saline
[2] = endpoint: mean survival time, dose: 200.0 mg/kg/injection, schedule: Q04DX003 (ip), vehicle: saline
[3] = endpoint: mean survival time, dose: 400.0 mg/kg/injection, schedule: Q04DX003 (ip), vehicle: saline
[4] = endpoint: mean survival time, dose: 100.0 mg/kg/injection, schedule: Q01DX009 (ip), vehicle: saline with Tween-80
[5] = endpoint: mean survival time, dose: 200.0 mg/kg/injection, schedule: Q01DX009 (ip), vehicle: saline with Tween-80
[6] = endpoint: mean survival time, dose: 400.0 mg/kg/injection, schedule: Q01DX009 (ip), vehicle: saline with Tween-80
[7] = endpoint: mean survival time, dose: 50.0 mg/kg/injection, schedule: Q01DX001 (ip), vehicle: saline
[8] = endpoint: mean survival time, dose: 100.0 mg/kg/injection, schedule: Q01DX001 (ip), vehicle: saline
[9] = endpoint: mean survival time, dose: 100.0 mg/kg/injection, schedule: Q01DX001 (ip), vehicle: saline with Tween-80
[10] = endpoint: mean survival time, dose: 200.0 mg/kg/injection, schedule: Q01DX001 (ip), vehicle: saline with Tween-80
[11] = endpoint: mean survival time, dose: 100.0 mg/kg/injection, schedule: Q01DX001 (ip), vehicle: Klucel (hydroxypropylcellulose) (HPC)
[12] = endpoint: mean survival time, dose: 200.0 mg/kg/injection, schedule: Q01DX001 (ip), vehicle: Klucel (hydroxypropylcellulose) (HPC)
[13] = endpoint: mean survival time, dose: 400.0 mg/kg/injection, schedule: Q01DX001 (ip), vehicle: Klucel (hydroxypropylcellulose) (HPC)
[14] = endpoint: mean survival time, dose: 100.0 mg/kg/injection, schedule: Q04DX003 (ip), vehicle: saline with Tween-80
[15] = endpoint: mean survival time, dose: 200.0 mg/kg/injection, schedule: Q04DX003 (ip), vehicle: saline with Tween-80
[16] = endpoint: mean survival time, dose: 400.0 mg/kg/injection, schedule: Q04DX003 (ip), vehicle: saline with Tween-80
[17] = endpoint: mean survival time, dose: 200.0 mg/kg/injection, schedule: Q01DX001 (ip), vehicle: saline
[18] = endpoint: mean survival time, dose: 400.0 mg/kg/injection, schedule: Q01DX001 (ip), vehicle: saline with Tween-80

Measured: T/C

CCC(C)(O)C(C)N(C)c1ccccc1 (centres undefined)
inactive: [1] 102 % of control and 97 % of control | [2] 102 % of control and 100 % of control | [3] 102 % of control and 106 % of control

CCCCCCCCCCCCCCCc1cc(O)ccc1[N+](=O)[O-]
inactive: [4] 111 % of control | [5] 115 % of control | [6] 96 % of control

O=C(O)C(Cl)C(Cl)c1ccccc1 (centres undefined)
inactive: endpoint: mean survival time, dose: 100.0 mg/kg/injection, schedule: Q04DX002 (ip), vehicle: saline 90 % of control | endpoint: mean survival time, dose: 200.0 mg/kg/injection, schedule: Q04DX002 (ip), vehicle: saline 94 % of control | endpoint: mean survival time, dose: 400.0 mg/kg/injection, schedule: Q04DX002 (ip), vehicle: saline 94 % of control

Oc1c(Br)cc(Br)cc1/C=N/c1nc(-c2ccccc2)cs1.Oc1c(Br)cc(Br)cc1/C=N/c1nc(-c2ccccc2)cs1.[Co]
inactive: endpoint: mean survival time, dose: 25.0 mg/kg/injection, schedule: Q01DX001 (ip), vehicle: saline 100 % of control | [7] 100 % of control | [8] 87 % of control

C[n+]1c2ccccc2c(Cl)c2ccccc21
inactive: [9] 104 % of control | [10] 109 % of control

N#CC1CC2C=CC1C2 (centres undefined)
inactive: endpoint: mean survival time, dose: 5.0 mg/kg/injection, schedule: Q01DX009 (ip), vehicle: saline 98 % of control | endpoint: mean survival time, dose: 5.0 mg/kg/injection, schedule: Q04DX003 (ip), vehicle: saline 95 % of control | endpoint: mean survival time, dose: 10.0 mg/kg/injection, schedule: Q01DX009 (ip), vehicle: saline 98 % of control | endpoint: mean survival time, dose: 10.0 mg/kg/injection, schedule: Q04DX003 (ip), vehicle: saline 97 % of control | endpoint: mean survival time, dose: 20.0 mg/kg/injection, schedule: Q01DX009 (ip), vehicle: saline 87 % of control | endpoint: mean survival time, dose: 20.0 mg/kg/injection, schedule: Q04DX003 (ip), vehicle: saline 100 % of control

CCOC(=O)Nc1cc(NCc2ccccc2)c2[nH]cnc2n1
inactive: [11] 89 % of control | [12] 95 % of control | [13] 98 % of control

Cc1ccc(S(=O)(=O)NN=C(c2ccccc2)c2ccccc2)cc1
inactive: endpoint: mean survival time, dose: 25.0 mg/kg/injection, schedule: Q01DX009 (ip), vehicle: water 101 % of control | endpoint: mean survival time, dose: 50.0 mg/kg/injection, schedule: Q01DX009 (ip), vehicle: water 101 % of control | endpoint: mean survival time, dose: 100.0 mg/kg/injection, schedule: Q01DX009 (ip), vehicle: water 95 % of control | endpoint: mean survival time, dose: 200.0 mg/kg/injection, schedule: Q01DX009 (ip), vehicle: water 95 % of control

O=CC1C2C=CCC12 (centres undefined)
inactive: endpoint: mean survival time, dose: 100.0 mg/kg/injection, schedule: Q01DX009 (ip), vehicle: saline sonified 102 % of control | [14] 95 % of control | endpoint: mean survival time, dose: 200.0 mg/kg/injection, schedule: Q01DX009 (ip), vehicle: saline sonified 102 % of control | [15] 95 % of control | endpoint: mean survival time, dose: 400.0 mg/kg/injection, schedule: Q01DX009 (ip), vehicle: saline sonified 91 % of control | [16] 95 % of control

NC/C(=N\Nc1ccc([N+](=O)[O-])cc1[N+](=O)[O-])c1ccccc1
inactive: [1] 103 % of control | [2] 100 % of control | [3] 97 % of control

CC(C)c1cc2ccccc2s1
inactive: [8] 96 % of control | [17] 102 % of control

Cc1cc(C)c(S(=O)(=O)F)cc1C(=O)O
inactive: [9] 101 % of control | [4] 96 % of control and 100 % of control | endpoint: mean survival time, dose: 100.0 mg/kg/injection, schedule: Q04DX002 (ip), vehicle: saline with Tween-80 92 % of control and 104 % of control | [14] 107 % of control | [10] 95 % of control | [5] 93 % of control and 94 % of control | endpoint: mean survival time, dose: 200.0 mg/kg/injection, schedule: Q04DX002 (ip), vehicle: saline with Tween-80 96 % of control and 104 % of control | [15] 102 % of control | [6] 96 % of control | endpoint: mean survival time, dose: 400.0 mg/kg/injection, schedule: Q04DX002 (ip), vehicle: saline with Tween-80 94 % of control and 102 % of control | [16] 100 % of control

Nc1cccc(OCCOc2ccccc2[N+](=O)[O-])c1
inactive: [11] 93 % of control | [12] 90 % of control | [13] 90 % of control

CC1(C)N=C(N)N=C(N)N1c1ccc(OCc2ccc(C(=O)Nc3cccc(S(=O)(=O)F)c3)cc2)c(Cl)c1
inactive: [2] 104 % of control

N#CCCOS(=O)(=O)c1ccc(N)c([N+](=O)[O-])c1
inactive: [9] 103 % of control | [4] 93 % of control | [10] 100 % of control | [5] 96 % of control | [18] 102 % of control | [6] 96 % of control

CCN(CC)Cc1cccc(Nc2cc(C)nc(/N=C(\N)Nc3ccc(Cl)c(Cl)c3)n2)c1
inactive: endpoint: mean survival time, dose: 9.5 mg/kg/injection, schedule: Q01DX001 (ip), vehicle: other 102 % of control | endpoint: mean survival time, dose: 19.0 mg/kg/injection, schedule: Q01DX001 (ip), vehicle: other 96 % of control | endpoint: mean survival time, dose: 38.0 mg/kg/injection, schedule: Q01DX001 (ip), vehicle: other 95 % of control

COC(=O)c1ccccc1N=NNc1ccc(C(F)(F)F)c([N+](=O)[O-])c1
inactive: [4] 103 % of control | [5] 95 % of control | [6] 95 % of control

O=C(O)/C(Br)=C/c1ccccc1
inactive: endpoint: mean survival time, dose: 50.0 mg/kg/injection, schedule: Q01DX009 (ip), vehicle: saline with Tween-80 100 % of control | [4] 90 % of control | [14] 103 % of control | [5] 90 % of control | [15] 110 % of control | [16] 110 % of control

O=C(CNC(=O)OCc1ccccc1)NCC(=O)NC(Cc1ccccc1)C(=O)O (stereo not drawn) (Cbz-Gly-Gly-[ξF]-OH)
inactive: [14] 96 % of control | [15] 93 % of control | [16] 93 % of control

Cc1ccc2nc(O)cc(=O)n2c1
inactive: [7] 103 % of control | [8] 103 % of control | [17] 97 % of control | endpoint: mean survival time, dose: 400.0 mg/kg/injection, schedule: Q01DX001 (ip), vehicle: saline 94 % of control

CCCCCC(C)(C#N)CCCCC
inactive: [4] 105 % of control | [5] 103 % of control

Cc1ccc(C(=O)CC#N)c(C)c1
inactive: [4] 96 % of control | [14] 98 % of control | [15] 112 % of control | [6] 90 % of control | [16] 102 % of control

COc1cccc(CCNC(=O)CCN2C(=O)CCC2=O)c1
inactive: [4] 98 % of control | endpoint: mean survival time, dose: 100.0 mg/kg/injection, schedule: Q04DX003 (ip), vehicle: saline sonified 101 % of control | [5] 93 % of control | endpoint: mean survival time, dose: 200.0 mg/kg/injection, schedule: Q04DX003 (ip), vehicle: saline sonified 98 % of control | [6] 100 % of control | endpoint: mean survival time, dose: 400.0 mg/kg/injection, schedule: Q04DX003 (ip), vehicle: saline sonified 104 % of control

COP(=O)(OC)OCC1OC(n2cnc3c(N)ncnc32)C(O)C1O (centres undefined)
inactive: endpoint: median survival time, dose: 12.5 mg/kg/injection, schedule: Q01DX005 (ip), vehicle: water 96 % of control | endpoint: median survival time, dose: 25.0 mg/kg/injection, schedule: Q01DX005 (ip), vehicle: water 96 % of control | endpoint: median survival time, dose: 50.0 mg/kg/injection, schedule: Q01DX005 (ip), vehicle: water 102 % of control | endpoint: median survival time, dose: 100.0 mg/kg/injection, schedule: Q01DX005 (ip), vehicle: water 103 % of control | endpoint: median survival time, dose: 200.0 mg/kg/injection, schedule: Q01DX005 (ip), vehicle: water 100 % of control

COC(=O)C1C2C=CC(CC2)C1C(=O)OC (centres undefined)
inactive: [9] 103 % of control | [10] 88 % of control | [18] 103 % of control

— PubChem BioAssay AID256 (DTP/NCI, 2004)
